{"source": "PubChem BioAssay AID2060610", "about": "(Molecular Pharmacology Branch, DTP, NCI, 2025);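 also: spheroids exposed to agents for 7 days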;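 as to viability, T/C: 100% = DMSO vehicle wells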", "tested_on": "616215-338-R-J1-PDC complex spheroids, viability % test/control", "test": "Anticancer human tumor 616215-338-R-J1-PDC patient-derived colon adenocarcinoma cell line growth inhibition [CLK]", "settings": "for IC50: curve of first compound; for viability, T/C: stronger effect = lower value", "summary_of_the_method": "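Patient-derived tumor cells grown as complex spheroids with HUVEC endothelial cells and mesenchymal stem cells, treated with drug combinations. Concentrations descend in half-log steps from near clinical Cmax, or from 10 microM if Cmax unknown.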", "key": {"[1]": {"settings": "second compound 0.0316 µM, first compound 0.0316 µM"}, "[2]": {"settings": "second compound 0.0316 µM, first compound 0.1 µM"}, "[3]": {"settings": "second compound 0.0316 µM, first compound 0.316 µM"}, "[4]": {"settings": "second compound 0.0316 µM, first compound 1 µM"}, "[5]": {"settings": "second compound 0.0316 µM, first compound 3.16 µM"}, "[6]": {"settings": "second compound 0.0316 µM, first compound 10 µM"}, "[7]": {"settings": "second compound 0.1 µM, first compound 0.0316 µM"}, "[8]": {"settings": "second compound 0.1 µM, first compound 0.1 µM"}, "[9]": {"settings": "second compound 0.1 µM, first compound 0.316 µM"}, "[10]": {"settings": "second compound 0.1 µM, first compound 1 µM"}, "[11]": {"settings": "second compound 0.1 µM, first compound 3.16 µM"}, "[12]": {"settings": "second compound 0.1 µM, first compound 10 µM"}, "[13]": {"settings": "second compound 0.316 µM, first compound 0.0316 µM"}, "[14]": {"settings": "second compound 0.316 µM, first compound 0.1 µM"}, "[15]": {"settings": "second compound 0.316 µM, first compound 0.316 µM"}, "[16]": {"settings": "second compound 0.316 µM, first compound 1 µM"}, "[17]": {"settings": "second compound 0.316 µM, first compound 3.16 µM"}, "[18]": {"settings": "second compound 0.316 µM, first compound 10 µM"}, "[19]": {"settings": "second compound 1 µM, first compound 0.0316 µM"}, "[20]": {"settings": "second compound 1 µM, first compound 0.1 µM"}, "[21]": {"settings": "second compound 1 µM, first compound 0.316 µM"}, "[22]": {"settings": "second compound 1 µM, first compound 1 µM"}, "[23]": {"settings": "second compound 1 µM, first compound 3.16 µM"}, "[24]": {"settings": "second compound 1 µM, first compound 10 µM"}, "[25]": {"settings": "second compound 3.16 µM, first compound 0.0316 µM"}, "[26]": {"settings": "second compound 3.16 µM, first compound 0.1 µM"}, "[27]": {"settings": "second compound 3.16 µM, first compound 0.316 µM"}, "[28]": {"settings": "second compound 3.16 µM, first compound 1 µM"}, "[29]": {"settings": "second compound 3.16 µM, first compound 3.16 µM"}, "[30]": {"settings": "second compound 3.16 µM, first compound 10 µM"}, "[31]": {"settings": "second compound 10 µM, first compound 0.0316 µM"}, "[32]": {"settings": "second compound 10 µM, first compound 0.1 µM"}, "[33]": {"settings": "second compound 10 µM, first compound 0.316 µM"}, "[34]": {"settings": "second compound 10 µM, first compound 1 µM"}, "[35]": {"settings": "second compound 10 µM, first compound 3.16 µM"}, "[36]": {"settings": "second compound 10 µM, first compound 10 µM"}}}
{"smiles": "Nc1ccccc1NC(=O)c1ccc(CNC(=O)OCc2cccnc2)cc1", "note": "+ CNC(=O)c1ccc(Nc2nc(OC3CCCC3)c3c(-c4ccc5nc(C)oc5c4)c[nH]c3n2)c(OC)c1", "values": [{"measurement": "IC50", "setting": "second compound 0.0316 µM", "result": 5080, "unit": "nM"}, {"measurement": "IC50", "setting": "second compound 0.1 µM", "result": 85, "unit": "nM"}, {"measurement": "IC50", "setting": "second compound 0.316 µM", "result": "< 31.6", "unit": "nM"}, {"measurement": "IC50", "setting": "second compound 1 µM", "result": "< 31.6", "unit": "nM"}, {"measurement": "IC50", "setting": "second compound 3.16 µM", "result": "< 31.6", "unit": "nM"}, {"measurement": "IC50", "setting": "second compound 10 µM", "result": "< 31.6", "unit": "nM"}, {"measurement": "viability, T/C", "setting": "[1]", "result": 86.2, "unit": "%"}, {"measurement": "viability, T/C", "setting": "[2]", "result": 82, "unit": "%"}, {"measurement": "viability, T/C", "setting": "[3]", "result": 80.2, "unit": "%"}, {"measurement": "viability, T/C", "setting": "[4]", "result": 96.7, "unit": "%"}, {"measurement": "viability, T/C", "setting": "[5]", "result": 72.5, "unit": "%"}, {"measurement": "viability, T/C", "setting": "[6]", "result": 17.7, "unit": "%"}, {"measurement": "viability, T/C", "setting": "[7]", "result": 56.1, "unit": "%"}, {"measurement": "viability, T/C", "setting": "[8]", "result": 48.9, "unit": "%"}, {"measurement": "viability, T/C", "setting": "[9]", "result": 37.3, "unit": "%"}, {"measurement": "viability, T/C", "setting": "[10]", "result": 36.1, "unit": "%"}, {"measurement": "viability, T/C", "setting": "[11]", "result": 36.7, "unit": "%"}, {"measurement": "viability, T/C", "setting": "[12]", "result": 10.6, "unit": "%"}, {"measurement": "viability, T/C", "setting": "[13]", "result": 40.7, "unit": "%"}, {"measurement": "viability, T/C", "setting": "[14]", "result": 39.4, "unit": "%"}, {"measurement": "viability, T/C", "setting": "[15]", "result": 35.9, "unit": "%"}, {"measurement": "viability, T/C", "setting": "[16]", "result": 34, "unit": "%"}, {"measurement": "viability, T/C", "setting": "[17]", "result": 29.3, "unit": "%"}, {"measurement": "viability, T/C", "setting": "[18]", "result": 7.21, "unit": "%"}, {"measurement": "viability, T/C", "setting": "[19]", "result": 42.7, "unit": "%"}, {"measurement": "viability, T/C", "setting": "[20]", "result": 36.7, "unit": "%"}, {"measurement": "viability, T/C", "setting": "[21]", "result": 32.8, "unit": "%"}, {"measurement": "viability, T/C", "setting": "[22]", "result": 29.1, "unit": "%"}, {"measurement": "viability, T/C", "setting": "[23]", "result": 24.8, "unit": "%"}, {"measurement": "viability, T/C", "setting": "[24]", "result": 6.92, "unit": "%"}, {"measurement": "viability, T/C", "setting": "[25]", "result": 35.1, "unit": "%"}, {"measurement": "viability, T/C", "setting": "[26]", "result": 35.8, "unit": "%"}, {"measurement": "viability, T/C", "setting": "[27]", "result": 28.5, "unit": "%"}, {"measurement": "viability, T/C", "setting": "[28]", "result": 26.9, "unit": "%"}, {"measurement": "viability, T/C", "setting": "[29]", "result": 22.7, "unit": "%"}, {"measurement": "viability, T/C", "setting": "[30]", "result": 3.91, "unit": "%"}, {"measurement": "viability, T/C", "setting": "[31]", "result": 34.3, "unit": "%"}, {"measurement": "viability, T/C", "setting": "[32]", "result": 30.8, "unit": "%"}, {"measurement": "viability, T/C", "setting": "[33]", "result": 28, "unit": "%"}, {"measurement": "viability, T/C", "setting": "[34]", "result": 24, "unit": "%"}, {"measurement": "viability, T/C", "setting": "[35]", "result": 23.8, "unit": "%"}, {"measurement": "viability, T/C", "setting": "[36]", "result": 3.95, "unit": "%"}]}
{"smiles": "COc1ccc([C@@H](O)c2cc(-c3ncnc4cc(N5CCOCC5)ccc34)c(F)cc2Cl)nn1", "note": "+ CN1CCN(c2cc(C(=O)Nc3cc4cc(-c5cnn(C)c5)ccc4cn3)ccn2)CC1", "values": [{"measurement": "IC50", "setting": "second compound 0.0316 µM", "result": "> 10000", "unit": "nM"}, {"measurement": "IC50", "setting": "second compound 0.1 µM", "result": 9460, "unit": "nM"}, {"measurement": "IC50", "setting": "second compound 0.316 µM", "result": "< 31.6", "unit": "nM"}, {"measurement": "IC50", "setting": "second compound 1 µM", "result": "< 31.6", "unit": "nM"}, {"measurement": "IC50", "setting": "second compound 3.16 µM", "result": "< 31.6", "unit": "nM"}, {"measurement": "IC50", "setting": "second compound 10 µM", "result": "< 31.6", "unit": "nM"}, {"measurement": "viability, T/C", "setting": "[1]", "result": 105, "unit": "%"}, {"measurement": "viability, T/C", "setting": "[2]", "result": 106, "unit": "%"}, {"measurement": "viability, T/C", "setting": "[3]", "result": 105, "unit": "%"}, {"measurement": "viability, T/C", "setting": "[4]", "result": 109, "unit": "%"}, {"measurement": "viability, T/C", "setting": "[5]", "result": 111, "unit": "%"}, {"measurement": "viability, T/C", "setting": "[6]", "result": 67.7, "unit": "%"}, {"measurement": "viability, T/C", "setting": "[7]", "result": 122, "unit": "%"}, {"measurement": "viability, T/C", "setting": "[8]", "result": 107, "unit": "%"}, {"measurement": "viability, T/C", "setting": "[9]", "result": 104, "unit": "%"}, {"measurement": "viability, T/C", "setting": "[10]", "result": 103, "unit": "%"}, {"measurement": "viability, T/C", "setting": "[11]", "result": 88.4, "unit": "%"}, {"measurement": "viability, T/C", "setting": "[12]", "result": 47.2, "unit": "%"}, {"measurement": "viability, T/C", "setting": "[13]", "result": 25.2, "unit": "%"}, {"measurement": "viability, T/C", "setting": "[14]", "result": 30.6, "unit": "%"}, {"measurement": "viability, T/C", "setting": "[15]", "result": 25.9, "unit": "%"}, {"measurement": "viability, T/C", "setting": "[16]", "result": 19.8, "unit": "%"}, {"measurement": "viability, T/C", "setting": "[17]", "result": 17.9, "unit": "%"}, {"measurement": "viability, T/C", "setting": "[18]", "result": 7.77, "unit": "%"}, {"measurement": "viability, T/C", "setting": "[19]", "result": 0.11, "unit": "%"}, {"measurement": "viability, T/C", "setting": "[20]", "result": 0.15, "unit": "%"}, {"measurement": "viability, T/C", "setting": "[21]", "result": 1.72, "unit": "%"}, {"measurement": "viability, T/C", "setting": "[22]", "result": 0.1, "unit": "%"}, {"measurement": "viability, T/C", "setting": "[23]", "result": 0.59, "unit": "%"}, {"measurement": "viability, T/C", "setting": "[24]", "result": 0.08, "unit": "%"}, {"measurement": "viability, T/C", "setting": "[25]", "result": 0.09, "unit": "%"}, {"measurement": "viability, T/C", "setting": "[26]", "result": 0.13, "unit": "%"}, {"measurement": "viability, T/C", "setting": "[27]", "result": 0.15, "unit": "%"}, {"measurement": "viability, T/C", "setting": "[28]", "result": 0.1, "unit": "%"}, {"measurement": "viability, T/C", "setting": "[29]", "result": 0.14, "unit": "%"}, {"measurement": "viability, T/C", "setting": "[30]", "result": 0.12, "unit": "%"}, {"measurement": "viability, T/C", "setting": "[31]", "result": 0.11, "unit": "%"}, {"measurement": "viability, T/C", "setting": "[32]", "result": 0.13, "unit": "%"}, {"measurement": "viability, T/C", "setting": "[33]", "result": 0.18, "unit": "%"}, {"measurement": "viability, T/C", "setting": "[34]", "result": 0.18, "unit": "%"}, {"measurement": "viability, T/C", "setting": "[35]", "result": 1.74, "unit": "%"}, {"measurement": "viability, T/C", "setting": "[36]", "result": 0.19, "unit": "%"}]}
